Test results as given in patent publication US20030186423A1, “Amidase from variovorax” (Degussa AG, priority 2001, published 2003).

Legend:
Assay type in all cases: biochemical, Variovorax paradoxus
D-amidase [1] = experiment: Kinetic cleavage of racemic amino acid amides: enantioselectivity as a function of the conversion
Method: To evaluate the suitability for kinetic cleavage of racemic DL-Tle-NH2, the enantioselectivity was determined as a function of the conversion.
DL-Valin-, DL-leucin- and DL-phenylalaninamide were alos tested in this respect. For this, the enantioselectivity was determined as function of the conversion with partly purified enzyme from Variovorax paradoxus 19-3 after the 1st chromatography step.
(§1) The separation and quantitative determination of the enantiomers D- and L-tert-leucine were carried out by a “chiral derivatization” on the basis of o-phthaldialdehyde (OPA)/N-isobutyryl-L-cysteine or N-isobutyryl-D-cysteine (Brückner, H.; Wittner R. and Godel H. (1991), Fully automated high-performance liquid chromatographic separation of DL-amino acids derivatized with o-Phthaldialdehyde together with N-isopropyl-cysteine. Application to food samples. Anal. Biochem. 144, 204-206). The diastereomeric isoindole derivatives formed were separated on an RP-18 (reversed phase) column and detected by fluorescence. A two-buffer system of aqueous acetate buffer and an acetonitrile/water mixture was used as the mobile phase.

D-amidase [2] = experiment: Enzyme test for amino acid amides and α-hydroxycarboxylic acid amides (HPLC or NH4+ determination); details: for Activity with respect to Tle-NH2 / Specific activity: substrate 40 mM; for Activity with respect to Tle-NH2: DL-Tle-NH2 = 1; for Specific activity: partly purified D-amidase after the 2nd chromatography step (0.56 U/mg), Pro-, Lac-, MHA-NH2 by NH4+ determination; for Rel. activity with respect to D and L: activity for the lower enantiomer set at 1
Method: For prolinamide, and the α-hydroxycarboxylic acid amides lactic acid amide (Lac-NH2) and 2-hydroxy-4-methylmercaptobutyric acid amid (MHA-NH2), the methionine-analogous α-hydroxycarboxylic acid amide, determination of the product with the previous HPLC analysis is not possible. For these substrates, the activity was determined with the aid of NH4^+ determination. […] All the substrates were employed in the enzyme test at 40 mM. In the 4th column, for further comparison the activity for the lower enantiomer has been set at 1 and a relative activity for the preferred enantiomer has been calculated therefrom.
(§2) In the conversion of tert-leucinamide (gen. acid amides) by the D-amidase, the formation of ammonia or ammonium ions and tert-leucine (gen. acid) in equimolar amounts occurs. […] The change in concentration of the components participating can be measured in an enzyme test, which comprises incubation of the following test batch for 10-60 minutes at 30° C.
(§3) The enzyme test was started by addition of the substrate and the reaction was stopped by heating at 95° C. for three minutes. The analysis of the reaction products was carried out for ammonium ions by enzymatic determination of ammonium by glutamate dehydrogenase (Bergmeyer, H.,U., and Beutler, H.-O. (1985) Ammonia. In: Methods of Enzymatic Analysis. VCH-Verlag, 3rd edition, vol. 8: 454-461, Weinheim) and for D- and L-tert-leucine by means of HPLC (Bruckner, H., Wittner R., and Godel H., (1991) Fully automated high-performance liquid chromatographic separation of DL-amino acids derivatized with o-phthaldialdehyde together with N-isopropyl-cysteine. Application to food samples. Anal. Biochem. 144(1): 204-206). Batches to which no substrate were added served as controls.
as §1

D-amidase [3] = experiment: Enzyme test for acid amides, activity by determination of ammonium ions with glutamate dehydrogenase; details: for Activity with respect to Tle-NH2: DL-Tle-NH2 = 1; for Relative act.: partly purified D-amidase after the 2nd chromatography step (0.51 U/mg)
Method: The activity was measured by determination of the ammonium ions with glutamate dehydrogenase (Bergmeyer, H. U., and Beutler, H.-O. (1985), Ammonia. In: Methods of Enzymatic Analysis. VCH-Verlag, 3rd edition, vol. 8: 454-461, Weinheim). […] The substrates were employed in the enzyme test at 40 mM, except for succinic acid diamide and adipic acid diamide, each at 10 mM, and benzylamide at 20 mM. Since the activities were determined only at in each case one substrate concentration, relative activities are stated.
as §2, §3
The enzyme glutamate dehydrogenase (GluDH; E.C.1.4.1.3) converts 2-oxoglutarate into L-glutamate, ammonium ions being consumed and NADH being oxidized to NAD+(Bergmeyer, H.,U. and Beutler, H.-O. (1985), Ammonia. In: Methods of Enzymatic Analysis. VCH-Verlag, 3rd edition, vol. 8: 454-461, Weinheim). The amount of NADH consumed during the reaction is equivalent to the amount of ammonium ions. The change in the concentration of NADH is the measurement parameter and can be determined spectrophotometrically at a wavelength of 340 nm.
The test components were pipetted into cells of plastic (1.5 ml semimicro disposable cells, Brand) and mixed and the extinction at 340 nm was determined after 5 min. 10 μl GluDH were then added, and after the reaction had gone to completion, as a rule after 30 min, the extinction was measured again.

[4] = conversion 4%, partly purified enzyme after the 1st chromatography step
[5] = conversion 51%, partly purified enzyme after the 1st chromatography step

Molecule: CC(C)C[C@H](N)C(N)=O (racemic) [DL-Leu-NH2]
- E value (D-amidase [1]; conversion 4%): 470
- ee D-Val (D-amidase [1]; [4]): 99.6%
- E value (D-amidase [1]; conversion 18%): 130
- ee D-Val (D-amidase [1]; conversion 18%, partly purified enzyme after the 1st chromatography step): 98.1%
- E value (D-amidase [1]; conversion 33%): 120
- ee D-Val (D-amidase [1]; conversion 33%, partly purified enzyme after the 1st chromatography step): 97.3%
- E value (D-amidase [1]; conversion 40%): 114
- ee D-Val (D-amidase [1]; conversion 40%, partly purified enzyme after the 1st chromatography step): 96.7%
- E value (D-amidase [1]; conversion 48%): 53
- ee D-Val (D-amidase [1]; conversion 48%, partly purified enzyme after the 1st chromatography step): 90.8%
- E value (D-amidase [1]; conversion 51%): 41
- ee D-Val (D-amidase [1]; [5]): 86.7%

Molecule: CSCCC(O)C(N)=O (racemic) [DL-MHA-NH2, 2-hydroxy-4-methylmercaptobutyric acid amid]
- Activity with respect to Tle-NH2 (D-amidase [2]): 150
- Specific activity (D-amidase [2]): 82 U/mg

Molecule: CSCCC(N)C(N)=O (racemic) [DL-Met-NH2]
- Rel. activity with respect to D and L (D-amidase [2]): 2.7
- Activity with respect to Tle-NH2 (D-amidase [2]): 230
- Specific activity (D-amidase [2]): 130 U/mg

Molecule: NC(=O)C(N)Cc1ccccc1 (racemic) [DL-Phe-NH2, DL-phenylalaninamide]
- E value (D-amidase [1]; conversion 4%): 5.6
- ee D-Val (D-amidase [1]; [4]): 68.8%
- E value (D-amidase [1]; conversion 14%): 5.2
- ee D-Val (D-amidase [1]; conversion 14%, partly purified enzyme after the 1st chromatography step): 65.1%
- E value (D-amidase [1]; conversion 26%): 5.1
- ee D-Val (D-amidase [1]; conversion 26%, partly purified enzyme after the 1st chromatography step): 61.5%
- E value (D-amidase [1]; conversion 36%): 5.2
- ee D-Val (D-amidase [1]; conversion 36%, partly purified enzyme after the 1st chromatography step): 58.3%
- E value (D-amidase [1]; conversion 51%): 5.1
- ee D-Val (D-amidase [1]; [5]): 50.9%
- E value (average) (D-amidase [1]; racemic amide, calculated from Table 3): 5

Molecule: NC(=O)C(N)Cc1c[nH]c2ccccc12 (racemic) [DL-Trp-NH2]
- Rel. activity with respect to D and L (D-amidase [2]): 2.5
- Activity with respect to Tle-NH2 (D-amidase [2]): 160
- Specific activity (D-amidase [2]): 86 U/mg

Molecule: CC(N)=O [Acetamide]
- Activity with respect to Tle-NH2 (D-amidase [3]; substrate 40 mM): 4.0
- Relative act. (D-amidase [3]; substrate 40 mM): 2.1 U/mg

Molecule: CC(=O)CC(N)=O [Acetoacetamide]
- Activity with respect to Tle-NH2 (D-amidase [3]; substrate 40 mM): 130
- Relative act. (D-amidase [3]; substrate 40 mM): 58 U/mg

Molecule: NC(=O)CCCCC(N)=O [Adipic acid diamide]
- Activity with respect to Tle-NH2 (D-amidase [3]; substrate 10 mM): 14
- Relative act. (D-amidase [3]; substrate 10 mM): 7.0 U/mg

Molecule: CCCC(N)=O [Butyramide]
- Activity with respect to Tle-NH2 (D-amidase [3]; substrate 40 mM): 37
- Relative act. (D-amidase [3]; substrate 40 mM): 17 U/mg

Molecule: C[C@@H](N)C(N)=O [D-Ala-NH2]
- Rel. activity with respect to D and L (D-amidase [2]): 3.0
- Activity with respect to Tle-NH2 (D-amidase [2]): 44
- Specific activity (D-amidase [2]): 23 U/mg

Molecule: CC(O)C(N)=O [D-Lac-NH2, lactic acid amide]
- Rel. activity with respect to D and L (D-amidase [2]): 1
- Activity with respect to Tle-NH2 (D-amidase [2]): 59
- Specific activity (D-amidase [2]): 29 U/mg

Molecule: CC(C)C[C@@H](N)C(N)=O [D-Leu-NH2]
- Rel. activity with respect to D and L (D-amidase [2]): 15
- Activity with respect to Tle-NH2 (D-amidase [2]): 400
- Specific activity (D-amidase [2]): 220 U/mg

Molecule: NC(=O)[C@H](N)Cc1ccccc1 [D-Phe-NH2]
- Rel. activity with respect to D and L (D-amidase [2]): 4.6
- Activity with respect to Tle-NH2 (D-amidase [2]): 890
- Specific activity (D-amidase [2]): 500 U/mg

Molecule: N[C@H](Cc1ccccc1)C(=O)O [D-Phe]
- enantioselectivity (D-amidase [1]; range from 40 to 50% conversion, partly purified enzyme after the 1st chromatography step): ~55%

Molecule: NC(=O)[C@@H]1CCCN1 [D-Pro-NH2, prolinamide]
- Rel. activity with respect to D and L (D-amidase [2]): 1
- Activity with respect to Tle-NH2 (D-amidase [2]): 24
- Specific activity (D-amidase [2]): 12 U/mg

Molecule: CC(C)[C@@H](N)C(N)=O [D-Val-NH2]
- Rel. activity with respect to D and L (D-amidase [2]): 11
- Activity with respect to Tle-NH2 (D-amidase [2]): 13
- Specific activity (D-amidase [2]): 6.9 U/mg

Molecule: NC=O [Formamide]
- Activity with respect to Tle-NH2 (D-amidase [3]; substrate 40 mM): 0.13
- Relative act. (D-amidase [3]; substrate 40 mM): 0.061 U/mg

Molecule: CC(C)C(N)=O [Isobutyramide]
- Activity with respect to Tle-NH2 (D-amidase [3]; substrate 40 mM): 33
- Relative act. (D-amidase [3]; substrate 40 mM): 15 U/mg

Molecule: C[C@H](N)C(N)=O [L-Ala-NH2]
- Rel. activity with respect to D and L (D-amidase [2]): 1
- Activity with respect to Tle-NH2 (D-amidase [2]): 15
- Specific activity (D-amidase [2]): 7.7 U/mg

Molecule: CC[C@H](C)[C@H](N)C(N)=O [L-Ile-NH2]
- Activity with respect to Tle-NH2 (D-amidase [2]): 0.35
- Specific activity (D-amidase [2]): 0.17 U/mg

Molecule: CC(O)C(N)=O [L-Lac-NH2, lactic acid amide]
- Rel. activity with respect to D and L (D-amidase [2]): 1.1
- Activity with respect to Tle-NH2 (D-amidase [2]): 66
- Specific activity (D-amidase [2]): 33 U/mg

Molecule: CC(C)C[C@H](N)C(N)=O [L-Leu-NH2]
- Rel. activity with respect to D and L (D-amidase [2]): 1
- Activity with respect to Tle-NH2 (D-amidase [2]): 26
- Specific activity (D-amidase [2]): 15 U/mg

Molecule: CSCC[C@H](N)C(N)=O [L-Met-NH2]
- Rel. activity with respect to D and L (D-amidase [2]): 1
- Activity with respect to Tle-NH2 (D-amidase [2]): 86
- Specific activity (D-amidase [2]): 48 U/mg

Molecule: NC(=O)[C@@H](N)Cc1ccccc1 [L-Phe-NH2]
- Rel. activity with respect to D and L (D-amidase [2]): 1
- Activity with respect to Tle-NH2 (D-amidase [2]): 190
- Specific activity (D-amidase [2]): 110 U/mg

Molecule: NC(=O)[C@@H]1CCCN1 [L-Pro-NH2, prolinamide]
- Rel. activity with respect to D and L (D-amidase [2]): 2.3
- Activity with respect to Tle-NH2 (D-amidase [2]): 56
- Specific activity (D-amidase [2]): 28 U/mg

Molecule: NC(=O)[C@@H](N)Cc1c[nH]c2ccccc12 [L-Trp-NH2]
- Rel. activity with respect to D and L (D-amidase [2]): 1
- Activity with respect to Tle-NH2 (D-amidase [2]): 62
- Specific activity (D-amidase [2]): 34 U/mg

Molecule: NC(=O)[C@@H](N)Cc1ccc(O)cc1 [L-Tyr-NH2]
- Activity with respect to Tle-NH2 (D-amidase [2]): 100
- Specific activity (D-amidase [2]): 47 U/mg

Molecule: CC(C)[C@H](N)C(N)=O [L-Val-NH2]
- Rel. activity with respect to D and L (D-amidase [2]): 1
- Activity with respect to Tle-NH2 (D-amidase [2]): 1.2
- Specific activity (D-amidase [2]): 0.59 U/mg

Molecule: NC(=O)CC(N)=O [Malonic acid diamide]
- Activity with respect to Tle-NH2 (D-amidase [3]; substrate 40 mM): 2.9
- Relative act. (D-amidase [3]; substrate 40 mM): 1.5 U/mg

Molecule: NC(=O)c1cccnc1 [Nicotinamide]
- Activity with respect to Tle-NH2 (D-amidase [3]; substrate 40 mM): 19
- Relative act. (D-amidase [3]; substrate 40 mM): 8.5 U/mg

Molecule: CCC(N)=O [Propionamide]
- Activity with respect to Tle-NH2 (D-amidase [3]; substrate 40 mM): 26
- Relative act. (D-amidase [3]; substrate 40 mM): 12 U/mg

Molecule: NC(=O)CCC(N)=O [Succinic acid diamide]
- Activity with respect to Tle-NH2 (D-amidase [3]; substrate 10 mM): 2.1
- Relative act. (D-amidase [3]; substrate 10 mM): 1.1 U/mg

Molecule: CCCCC(N)=O [Valeric acid amide]
- Activity with respect to Tle-NH2 (D-amidase [3]; substrate 40 mM): 36
- Relative act. (D-amidase [3]; substrate 40 mM): 16 U/mg

Molecule: Benzylamide
- Activity with respect to Tle-NH2 (D-amidase [3]; substrate 20 mM): 5.2
- Relative act. (D-amidase [3]; substrate 20 mM): 2.6 U/mg
